From publication PMC4541002, “Quantification of Niacin and Its Metabolite Nicotinuric Acid in Human Plasma by LC-MS/MS: Application to a Clinical Trial of a Fixed Dose Combination Tablet of Niacin Extended-Release/Simvastatin (500 mg/10 mg) in Healthy Chinese Volunteers” (International Journal of Analytical Chemistry, 2015)
Where two headings read alike, the source gives them in different places.

How the values were obtained:
[1] = Pharmacokinetics of NA and NUA in plasma after single oral doses of Niacin extended-release/Simvastatin tablets in healthy Chinese volunteers; assay type: in vivo; conditions: for CLz/F: human plasma; for AUC(0-t) / AUC(0-inf) / Tmax / half-life / Cmax / k el / MRT last / Vd/F: both sexes, human, in vivo, po; for k el: n = 12, read-out: K e (converted); for MRT last: n = 12, read-out: MRT0–t; for Vd/F: n = 12, read-out: V z/F
Experimental: Extraction of NA and NUA was carried out by protein precipitation. First, 50 μL of the IS working solution (1000 ng/mL 5-FU) and 50 μL of water were added to a 100 μL aliquot of human plasma. The sample mixture was then deproteinized with 250 μL of acetonitrile, and the precipitate was removed by centrifugation at 15000 rpm for 10 min. The supernatant was transferred to another tube and evaporated under a gentle stream of nitrogen at 40°C until it is dry. The residue was reconstituted in 150 μL mobile phase and vortex-mixed for 30 sec. An aliquot of 40 μL of the solution was injected into the LC-MS/MS system for analysis.
Before conducting the study all subjects provided written informed consent to participate. The study was designed as randomized, open-label, crossover, and single dose periods with a 7-day washout between each treatment. A total of 12 healthy Chinese volunteers (6 males and 6 females) aged 20 to 35 years with a body mass index between 19 and 24 kg/m^2 were recruited. Subjects were randomized into three groups (2 males and 2 females for each treatment). They were orally dosed with Niacin extended-release/Simvastatin 1, 2, and 3 tablets once daily, separately. The venous blood samples were collected at time intervals (0, 0.33, 0.66, 1.0, 1.5, 2.0, 2.5, 3.0, 3.5, 4.0, 5.0, 6.0, 8.0, 12, and 24 h) in separate vacutainers during the treatment. All blood samples were centrifuged at 3000 ×g for 10 min and the plasma was separated and kept frozen at −20°C until analysis.
The pharmacokinetic parameters were calculated with data analysis system (DAS) program (version 2.0, Mathematical Pharmacology Professional Committee, Shanghai, China). The maximum plasma concentration (C max) and the corresponding time (T max) were obtained from observed data. The terminal elimination rate constant (K e) was estimated with least-squares regression of values in the terminal log-linear region of plasma concentration-time curves, and the terminal elimination half-life (t 1/2) was calculated to be 0.693/K e. The area under the curve from time zero to the last sampling time (AUC0−t) was determined using the linear trapezoidal rule.

[2] = Stability of stock solutions of NA and NUA; assay type: physicochemical
Experimental: Two separate stock solutions of the analytes were prepared at 1 mg/mL in methanol-water (50 : 50, v/v) and stored at −20°C. A series of standard working solutions for NA and NUA were prepared by diluting stock solution with methanol-water (50 : 50, v/v). The 5-FU solution was brought to a final concentration of 1000 ng/mL in acetonitrile from 1 mg/mL in acetonitrile. All working solutions were stored at 4°C and brought to room temperature before use. Calibration standards and quality control samples were prepared by spiking 50 μL of the working solutions and 50 μL of IS into 100 μL of drug-free human plasma. Matrix-matched NA and NUA calibration standards were prepared in plasma at concentrations of 5, 10, 20, 60, 200, 600, and 800 ng/mL, respectively. Similarly, NA and NUA quality control (QC) samples were prepared separately in plasma to give concentrations of 10, 60, and 600 ng/mL.

[3] = for Found C / Found R.E.: n = 3
Experimental: The following stability tests were evaluated: (1) stability of the stock solutions of the analytes; (2) freeze and thaw stability of the analytes in the plasma from −20°C to room temperature for three cycles; (3) short-term stability of the analytes in plasma at room temperature before extraction for 3 h and the ready-to-inject samples (after extraction, in the mobile phase) to the autosampler rack for 4 h; and (4) long-term stability of the analytes in matrix stored at −20°C for two months. All stability tests samples at three concentration levels (10, 60, and 600 ng/mL) were analyzed in triplicate and the deviations were determined in relation to freshly prepared samples.

[4] = 1 tablet (500 mg/10 mg), mean ± S.D., n = 12
[5] = 2 tablets (1000 mg/20 mg), mean ± S.D., n = 12
[6] = 3 tablets (1500 mg/30 mg), mean ± S.D., n = 12
[7] = 1 tablet (500 mg/10 mg), mean ± S.D.
[8] = 2 tablets (1000 mg/20 mg), mean ± S.D.
[9] = 3 tablets (1500 mg/30 mg), mean ± S.D.
[10] = extracted plasma sample in mobile phase, autosampler for 4 h (24°C), added 10.0 ng/mL
[11] = extracted plasma sample in mobile phase, autosampler for 4 h (24°C), added 60.0 ng/mL
[12] = extracted plasma sample in mobile phase, autosampler for 4 h (24°C), added 600.0 ng/mL
[13] = human plasma, long-term (2 months at −20°C), added 10.0 ng/mL
[14] = human plasma, long-term (2 months at −20°C), added 60.0 ng/mL
[15] = human plasma, long-term (2 months at −20°C), added 600.0 ng/mL
[16] = human plasma, short-term (3 h at 24°C), added 10.0 ng/mL
[17] = human plasma, short-term (3 h at 24°C), added 60.0 ng/mL
[18] = human plasma, short-term (3 h at 24°C), added 600.0 ng/mL
[19] = human plasma, three freeze/thaw cycles, added 10.0 ng/mL
[20] = human plasma, three freeze/thaw cycles, added 60.0 ng/mL
[21] = human plasma, three freeze/thaw cycles, added 600.0 ng/mL

`O=C(O)CNC(=O)c1cccnc1` [NUA, nicotinuric acid] showed a CLz/F [1, 4] of 287.8 ± 128.2 L/h, a CLz/F [1, 5] of 224.8 ± 91.90 L/h and a CLz/F [1, 6] of 189.3 ± 94.20 L/h. The AUC(0-t) ([1]; 1 tablet) was 2150 ± 1360 ng·h/mL, the AUC(0-inf) [1, 4] was 2180 ± 1370 ng·h/mL and the AUC(0-t) [1, 4] was 2150 ± 1360 ng·h/mL. For the same molecule, the Tmax [1, 4] was 2.06 ± 1.6 h, the half-life [1, 4] was 1.7 ± 0.801 h and the Cmax ([1]; 1 tablet (500 mg/10 mg), mean ± S.D., n = 12, read-out: C max) was 836 ± 399 ng/mL. It also gave a k el [1, 7] of 0.000147 s⁻¹, an MRT last [1, 7] of 2.91 ± 0.74 h and a Vd/F [1, 7] of 649 ± 338 L. It also gave a Cmax ([1]; 1 tablet, read-out: mean maximum plasma concentration (C max)) of 836 ± 399 ng/mL, an AUC(0-t) ([1]; 2 tablets) of 5400 ± 3220 ng·h/mL and an AUC(0-inf) [1, 5] of 5480 ± 3250 ng·h/mL. It also gave an AUC(0-t) [1, 5] of 5400 ± 3220 ng·h/mL, a Tmax [1, 5] of 3.03 ± 2.19 h and a half-life [1, 5] of 2.55 ± 1.26 h. For the same molecule, the Cmax ([1]; 2 tablets (1000 mg/20 mg), mean ± S.D., n = 12, read-out: C max) was 1630 ± 636 ng/mL, the k el [1, 8] was 9.17e-05 s⁻¹ and the MRT last [1, 8] was 3.6 ± 1.32 h. It also gave a Vd/F [1, 8] of 821 ± 523 L, a Cmax ([1]; 2 tablets, read-out: C max) of 1630 ± 636 ng/mL and an AUC(0-t) ([1]; 3 tablets) of 10200 ± 7080 ng·h/mL. The AUC(0-inf) [1, 6] was 10200 ± 7090 ng·h/mL, the AUC(0-t) [1, 6] was 10200 ± 7080 ng·h/mL and the Tmax [1, 6] was 2.33 ± 1.05 h. The half-life [1, 6] was 2.72 ± 1.83 h, the Cmax ([1]; 3 tablets (1500 mg/30 mg), mean ± S.D., n = 12, read-out: C max) was 2790 ± 1040 ng/mL and the k el [1, 9] was 9.17e-05 s⁻¹. The MRT last [1, 9] was 3.79 ± 1.11 h, the Vd/F [1, 9] was 696 ± 458 L and the Cmax ([1]; 3 tablets, read-out: C max) was 2790 ± 1040 ng/mL. For the same molecule, the “R.E.% of response, stock solution stability” value ([2]; seven days at −20°C versus before) was −1.6%, the “R.E.% of response, stock solution stability” value ([2]; six h at room temperature versus before) was 0.8% and the “Found C” value [3, 10] was 10.7 ng/mL. The “Found R.E.” value [3, 10] was 7.3%, the “Found C” value [3, 11] was 67.0 ng/mL and the “Found R.E.” value [3, 11] was 11.7%. For the same molecule, the “Found C” value [3, 12] was 598.3 ng/mL, the “Found R.E.” value [3, 12] was −0.3% and the “Found C” value [3, 13] was 10.6 ng/mL. The “Found R.E.” value [3, 13] was 6.4%, the “Found C” value [3, 14] was 59.1 ng/mL and the “Found R.E.” value [3, 14] was −1.5%. For the same molecule, the “Found C” value [3, 15] was 579.3 ng/mL, the “Found R.E.” value [3, 15] was −3.4% and the “Found C” value [3, 16] was 11.0 ng/mL. The “Found R.E.” value [3, 16] was 9.7%, the “Found C” value [3, 17] was 63.6 ng/mL and the “Found R.E.” value [3, 17] was 5.9%. For the same molecule, the “Found C” value [3, 18] was 628.7 ng/mL, the “Found R.E.” value [3, 18] was 4.8% and the “Found C” value [3, 19] was 10.8 ng/mL. For the same molecule, the “Found R.E.” value [3, 19] was 8.3%, the “Found C” value [3, 20] was 63.3 ng/mL and the “Found R.E.” value [3, 20] was 5.6%. The “Found C” value [3, 21] was 618.3 ng/mL, the “Found R.E.” value [3, 21] was 3.1% and the “stability in human plasma” value ([3]; variety of storage and process conditions (Tables 2 and 3)) was “did not reveal any significant degradation”.
